According to patent publication US11202789B2, “Method of treating glycogen storage disease” (Viking Therapeutics, Inc., priority 2016, dated 2021):

Key:
Type in all cases: in vivo
male ob/ob mice = test: 9-week efficacy and safety study in male ob/ob mice; conditions: for total plasma cholesterol levels lower: after 9 weeks; for liver triglyceride levels lower: at 9 weeks
Experimental: The objective of this study was to evaluate the efficacy and safety of Compound 2 treatment at doses of 3, 10, and 30 mg/kg/day for 9 weeks in male ob/ob mice. 3,3′,5-Triiodo-L-thyronine (T3) was used as a comparator in this study.
Methods: Seventy-eight adult male ob/ob mice were assigned to six different treatment groups (n=6-24/group). Animals were dosed daily with either vehicle [1% carboxymethylcellulose (CMC) in water, PO], T3 [(100 nmole/kg/day in aqueous solution, subcutaneous (SC)], or Compound 2 [3, 10 or 30 mg/kg/day in 1% CMC, PO]. Blood glucose and plasma cholesterol were measured weekly in all animals. Subsets of animals in the vehicle-treated and 30 mg/kg/day Compound 2-treated groups were sacrificed after 3, 6 and 9 weeks of treatment to analyze the temporal effects of Compound 2 on liver weight and liver triglyceride levels. Liver triglyceride levels, liver glycogen content, heart, liver and epididymal fat pad weights, and plasma clinical chemistry parameters were measured at sacrifice.

[1] = system: male diet-induced obese (DIO) C57Bl/6 mice; test: 2, 5 and 10 week study in mouse model of diet-induced obesity
Experimental: Objectives: The objectives of this study were to evaluate the effects of 2, 5 and 10 weeks of Compound 2 treatment at doses of 10 and 30 mg/kg/day on total plasma cholesterol levels, blood glucose levels, and hepatic steatosis in a mouse model of diet-induced obesity.
Methods: Male C57Bl/6 mice (4 weeks old) were fed a high-fat diet (60% fat by kcal) for 88 days to induce obesity, hyperlipidemia, and mild hyperglycemia prior to initiation of the study. For the study, 3 groups of mice (n=24-28) were dosed daily by gavage with 10 or 30 mg/kg of Compound 2 or vehicle (0.1% carboxymethylcellulose) and maintained on the same high-fat diet. During treatment, body weight, total plasma cholesterol levels, and blood glucose levels of the animals were measured weekly. Subsets of animals (n=6-12; 30 mg/kg/day) were sacrificed prior to treatment and after 2, 5 and 10 weeks of treatment for analysis of liver weights, liver triglyceride levels and liver histology.

G6PC−/− mice [2] = test: G6PC−/− mouse model of GSD Ia (Example 12)
Experimental: (§1) Compound 2 was tested in a G6PC−/−mouse model of GSD Ia. Daily injection of 0.1 to 0.2 mL 10% dextrose subcutaneously was initiated within 3 days of age for G6PC−/−mice. All G6PC−/−mice continued to receive daily dextrose injections during this time. Blood was collected at time of euthanasia, when tissues were collected. Two groups of 4 G6PC−/−mice (1 group treated with Compound 2, 1 group treated with vehicle) were analyzed to identify statistically significant differences between Compound 2-treated and vehicle-treated controls. We also treated 2 groups of 3 normal (wild type) mice, one with Compound 2 and one with vehicle.
(§2) Initially the GSD Ia mice were treated with Compound 2 from 5 to 10 days of age. Body mass, liver mass, liver glycogen concentration, liver triglycerides, fasting serum glucose, fasting serum triglycerides, and GSD-related cell signaling pathways were examined. Similarly, groups of GSD Ia mice were treated with vehicle for 5 days to serve as mock-treated controls for all assays. Groups of 3-4 mice were evaluated. GSD Ia mice were treated for >7 days to assess survival and longer-term effects of Compound 2 as described above (GSD Ia mice rarely survive >12 days of life without a therapeutic intervention). Metabolomic analysis of hepatic extracts were performed as described (Sinha, Farah et al. (2013), Hepatology 59(4):1366-80). Acylcarnitine and amino acid profiling were employed to detect any changes related to increased lipolysis and fatty acid beta-oxidation as described by Sinha et al. (Sinha, Farah et al. (2013), Hepatology 59(4):1366-80). […] Mean liver triglyceride content was reduced by more than 60% in Compound 2-treated animals relative to vehicle-treated control animals, while average liver weight was reduced by more than 30% vs. controls. Importantly, average liver weight as a percent of total body weight also declined by approximately 20% in treated vs. control animals. Further, treatment with Compound 2 led to statistically significant reductions in key metabolic markers of GSD Ia.

G6PC−/− mice [3] = test: G6pc−/− mouse model of GSD Ia, 4 days of treatment (Example 13)
Experimental: The objective of this study was to determine the ability of Compound 2, a small molecule prodrug of a potent thyroid hormone beta receptor (TBR) agonist, to reduce hepatic steatosis and other metabolic derangements in the glucose-6-phosphatase catalytic subunit knockout (G6pc−/−) mouse model of glycogen storage disease type Ia (GSD Ia).
Mice were treated with Compound 2 or with vehicle, using 4 groups of 6-7 mice: G6pc−/−mice receiving Compound 2, G6pc−/−mice receiving vehicle, Wt mice receiving Compound 2, and WT mice receiving vehicle. Daily injection of 0.1 to 0.2 mL 10% dextrose subcutaneously was initiated at 3 days of age for all mice, and all mice continued to receive daily dextrose injections throughout drug or vehicle treatment. Dextrose was not administered on the day of tissue collection. Mice were treated daily with Compound 2 or with vehicle, respectively, from 5 to 8 days of age. Mice were sacrificed on Day 9, and blood and tissues were collected. The fasting serum glucose and triglycerides, hepatic lipid and glycogen content, and GSD-related cell signaling pathways were examined.

normal (wild type) mice = test: Wild type mice treated alongside the G6PC−/− model (Example 12); conditions: wild type (wt) mice
Experimental: as §1, §2

[4] = 10 and 30 mg/kg/day, following 2, 5 and 10 weeks, vs vehicle

For Cc1cc(OCP2(=O)OCCC(c3cccc(Cl)c3)O2)cc(C)c1Cc1ccc(O)c(C(C)C)c1 (stereo not drawn) [Compound 2], the “total plasma cholesterol levels lower” value (male ob/ob mice; 3 mg/kg/day PO, vs vehicle) was ~43%, the liver glycogen content (male ob/ob mice; 10 mg/kg/day PO, 9 weeks, vs vehicle (FIG. 5)) was “significantly (p<0.05) higher” and the “total plasma cholesterol levels lower” value (male ob/ob mice; 10 mg/kg/day PO, vs vehicle) was ~42%. The “liver triglyceride levels lower” value (male ob/ob mice; 10 mg/kg/day PO, vs vehicle) was ~39%, the “total plasma cholesterol levels lower” value (male ob/ob mice; 30 mg/kg/day PO, vs vehicle) was ~47% and the “liver triglyceride levels lower” value (male ob/ob mice; 30 mg/kg/day PO, vs vehicle) was ~46%. The liver triglyceride levels (male ob/ob mice; 30 mg/kg/day PO, from Week 3 onwards, vs vehicle) was “lower”, the “terminal liver glycogen levels” value (male ob/ob mice; Compound 2-treated groups (3, 10, 30 mg/kg/day PO), 9 weeks, vs vehicle) was “modestly higher or similar” and the “alanine aminotransferase (ALT) levels” value (male ob/ob mice; all dose groups (3, 10, 30 mg/kg/day PO)) was “Decreased”. The terminal liver weights (male ob/ob mice; all dose groups (3, 10, 30 mg/kg/day PO), 9 weeks, vs vehicle) was “lower”, the “macrovesicular and microvesicular steatosis (liver histology)” value ([1]; 30 mg/kg/day, after 2, 5 and 10 weeks, vs vehicle) was “visually reduced” and the “blood glucose levels lower” value ([1]; 10 and 30 mg/kg/day by gavage, most time points, vs vehicle) was “up to 25%”. The “total plasma cholesterol levels decreased” value ([1]; 10 and 30 mg/kg/day by gavage, week 1 through end of study, vs vehicle) was “more than 50%”, the liver weights lower [1, 4] was ~50% and the “liver-to-body weight ratios lower” value [1, 4] was ~40%. For the same compound, the body weight gain ([1]; 10 and 30 mg/kg/day, up to 10 weeks) was “tended to reduce”, the “total liver triglyceride content (mg/liver) lower” value ([1]; 10 and 30 mg/kg/day, weeks 2, 5 and 10, vs vehicle) was “up to 60%” and the “liver triglyceride concentrations (mg/g liver)” value ([1]; 10 or 30 mg/kg/day, any time point, vs vehicle) was “No significant changes”. The “average liver weight reduced” value (G6PC−/− mice [2]; Compound 2-treated vs controls) was “more than 30%”, the “mean liver triglyceride content reduced” value (G6PC−/− mice [2]; Compound 2-treated vs vehicle-treated control animals) was “more than 60%” and the body mass (G6PC−/− mice [2]; G6PC−/− mice, vs vehicle-treated controls (FIG. 15)) was “reduced”. For the same compound, the liver mass (G6PC−/− mice [2]; G6PC−/− mice, vs vehicle-treated controls (FIG. 16)) was “reduced”, the “liver mass as a percentage of body mass” value (G6PC−/− mice [2]; G6PC−/− mice, vs vehicle-treated controls (FIG. 17)) was “reduced” and the liver glycogen levels (G6PC−/− mice [2]; G6PC−/− mice, vs vehicle-treated controls (FIG. 18)) was “somewhat enhanced”. The serum triglycerides (G6PC−/− mice [2]; G6PC−/− mice, vs vehicle-treated controls (FIG. 19)) was “somewhat enhanced”, the liver triglyceride concentrations (G6PC−/− mice [2]; G6PC−/− mice, vs vehicle-treated controls (FIG. 20)) was “reduced” and the total liver triglycerides (G6PC−/− mice [2]; G6PC−/− mice, vs vehicle-treated controls (FIG. 21)) was “reduced”. For the same compound, the “average liver weight as a percent of total body weight declined” value (G6PC−/− mice [2]; treated vs control animals) was “approximately 20%”, the “difference in kidney mass as a percentage of total body mass, Compound 2 vs vehicle” value (G6PC−/− mice [3]; G6pc−/− mice (FIG. 23B)) was “not significant” and the “mean total liver triglycerides reduced” value (G6PC−/− mice [3]; G6pc−/− mice, 4 days of drug treatment, vs vehicle-treated controls, p<0.0001) was 69.0%. The “mean serum triglyceride concentration” value (G6PC−/− mice [3]; G6pc−/− mice, drug treatment (vehicle 729.59 mg/dL)) was 336.58 mg/dL, the “decrease in mean serum triglyceride concentration” value (G6PC−/− mice [3]; G6pc−/− mice, drug treatment vs vehicle) was 54.0% and the “mean total liver triglycerides” value (G6PC−/− mice [3]; G6pc−/− mice, following 4 days of drug treatment (vehicle 13.550 mg)) was 4.210 mg. The blood glucose measurements (G6PC−/− mice [3]; G6pc−/− mice, lower detection limit of the glucometer (FIG. 27)) was < 20 mg/dL, the mean liver weights (G6PC−/− mice [3]; G6pc−/− mice, treated (control 393.55 mg)) was 253.11 mg and the “mean liver weights reduced” value (G6PC−/− mice [3]; G6pc−/− mice, treated vs control, p<0.05) was “over 30%”. For the same compound, the body mass (G6PC−/− mice [3]; daily treatment from 5 to 8 days of age (FIG. 22)) was “not affected”, the kidney mass (G6PC−/− mice [3]; daily treatment from 5 to 8 days of age (FIG. 23)) was “not affected” and the liver glycogen concentration (G6PC−/− mice [3]; under the dosing parameters chosen (FIG. 26)) was “no significant changes”. The serum glucose concentration (G6PC−/− mice [3]; under the dosing parameters chosen (FIG. 27)) was “no significant changes”, the serum triglyceride concentration (G6PC−/− mice [3]; under the dosing parameters chosen (FIG. 28)) was “no significant changes” and the body mass (normal (wild type) mice; vs vehicle-treated controls (FIG. 15)) was “reduced”. The liver mass (normal (wild type) mice; vs vehicle-treated controls (FIG. 16)) was “reduced”, the “liver mass as a percentage of body mass” value (normal (wild type) mice; vs vehicle-treated controls (FIG. 17)) was “reduced” and the liver glycogen levels (normal (wild type) mice; vs vehicle-treated controls (FIG. 18)) was “significantly reduced”. For the same compound, the serum triglycerides (normal (wild type) mice; vs vehicle-treated controls (FIG. 19)) was “somewhat enhanced”, the liver triglyceride concentrations (normal (wild type) mice; vs vehicle-treated controls (FIG. 20)) was “reduced” and the total liver triglycerides (normal (wild type) mice; vs vehicle-treated controls (FIG. 21)) was “reduced”.
